Source: patent US20140066431A1, “Benzoxazepines as Inhibitors of PI3K/mTOR and Methods of Their Use and Manufacture” (Exelixis, Inc., priority 2010, published 2014)

Molecular target: mTOR/GbL/Raptor (mTORC1) (Homo sapiens, UniProt P42345)
Assay: mTOR/GbL/Raptor (mTORC1) ELISA assay
Format: biochemical
Conditions: 0.2 nM mTORC1, 10 μM ATP, 50 nM 4E-BP1
Procedure: The measurement of mTORC1 enzyme activity was performed in an ELISA assay format following the phosphorylation of 4E-BP1 protein. All experiments were performed in the 384-well format. Generally, 0.5 μL DMSO containing varying concentrations of the test compound was mixed with 15 μL enzyme solution. Kinase reactions were initiated with the addition of 15 μL of substrates-containing solution. The assay conditions were as follows; 0.2 nM mTORC1, 10 μM ATP and 50 nM NHis-tagged 4E-BP1 in 20 mM Hepes, pH 7.2, 1 mM DTT, 50 mM NaCl, 10 mM MnCl2, 0.02 mg/mL BSA, 0.01% CHAPS, 50 mM β-glycerophosphate. Following an incubation of 120 minutes at ambient temperature, 20 μL of the reaction volume was transferred to a Ni-Chelate-coated 384-well plate. The binding step of the 4E-BP1 protein proceeded for 60 minutes, followed by washing 4 times each with 50 μL of Tris-buffered saline solution (TBS). Anti-phospho-4E-BP1 rabbit-IgG (20 μL, 1:5000) in 5% BSA-TBST (0.2% Tween-20 in TBS) was added and further incubated for 60 minutes. Incubation with a secondary HRP-tagged anti-IgG was similarly performed after washing off the primary antibody (4 washes of 50 μL). Following the final wash step with TBST, 20 μL of SuperSignal ELISA Femto (Pierce Biotechnology) was added and the luminescence measured using an EnVision plate reader.

Row | SMILES | IC50 (mTORC1 ELISA)
1 | Cc1nc2ccc(-c3ccc4c(c3)CN(C(=O)N3CC[S+]([O-])CC3)CCO4)cc2[nH]1 [compound 101, 7-(2-methyl-1H-benzimidazol-6-yl)-4-[(1-oxidothiomorpholin-4-yl)carbonyl]-2,3,4,5-tetrahydro-1,4-benzoxazepine] | not active
2 | Cc1nc2ccc(-c3ccc4c(c3)CN(C(=O)N3CCC(C5CCNCC5)CC3)CCO4)cc2[nH]1 [compound 71, 1-{[7-(2-methyl-1H-benzimidazol-6-yl)-2,3-dihydro-1,4-benzoxazepin-4(5H)-yl]carbonyl}-4,4′-bipiperidine] | not active
3 | Cc1nc2ccc(-c3ccc4c(c3)CN(C(=O)N3CCOCC3)CCO4)cc2[nH]1 [compound 132, 7-(2-methyl-1H-benzimidazol-6-yl)-4-(morpholin-4-ylcarbonyl)-2,3,4,5-tetrahydro-1,4-benzoxazepine] | not active
4 | Cc1nc2ccc(-c3ccc4c(c3)CN(C(=O)N3CC[C@H](O)C3)CCO4)cc2[nH]1 [compound 82, (3S)-1-{[7-(2-methyl-1H-benzimidazol-6-yl)-2,3-dihydro-1,4-benzoxazepin-4(5H)-yl]carbonyl}pyrrolidin-3-ol] | not active
5 | Cc1nc2ccc(-c3ccc4c(c3)CN(C(=O)N3CCCC3)CCO4)cc2[nH]1 [compound 87, 7-(2-methyl-1H-benzimidazol-6-yl)-4-(pyrrolidin-1-ylcarbonyl)-2,3,4,5-tetrahydro-1,4-benzoxazepine] | not active
6 | Cc1nc2ccc(-c3ccc4c(c3)CN(C(=O)N3CCN(c5ccc([N+](=O)[O-])cc5)CC3)CCO4)cc2[nH]1 [compound 168, 7-(2-methyl-1H-benzimidazol-6-yl)-4-{[4-(4-nitrophenyl)piperazin-1-yl]carbonyl}-2,3,4,5-tetrahydro-1,4-benzoxazepine] | not active
7 | Cc1nc2ccc(-c3ccc4c(c3)CN(C(=O)N3CCC(O)(C(F)(F)F)CC3c3ccc(F)c(F)c3)CCO4)cc2[nH]1 (centres unmarked) [compound 119, 2-(3,4-difluorophenyl)-1-{[7-(2-methyl-1H-benzimidazol-6-yl)-2,3-dihydro-1,4-benzoxazepin-4(5H)-yl]carbonyl}-4-(trifluoromethyl)piperidin-4-ol] | not active
8 | Cc1nc2ccc(-c3ccc4c(c3)CN(C(=O)N3CCN(C(=O)c5ccco5)CC3)CCO4)cc2[nH]1 [compound 158, 4-{[4-(furan-2-ylcarbonyl)piperazin-1-yl]carbonyl}-7-(2-methyl-1H-benzimidazol-6-yl)-2,3,4,5-tetrahydro-1,4-benzoxazepine] | not active
